Measured values reported in PMC5564600 (Oncotarget, 2017).

Key:
Assay in all cases: biochemical
Assay type in all cases: binding
panel of 442 kinases [1] = target: T1, panel of 442 kinases (Homo sapiens, UniProt P22607, G697C); details: FGFR3(G697C); for remaining activity at 1 µM: read-out: % of control at 1 µM
T1 construct: purchased Ambit Biosciences (scanMAXX KINOMEscan)

panel of 442 kinases [2] = target: T2, panel of 442 kinases (Homo sapiens, UniProt O43353); details: kinase RIPK2; for remaining activity at 1 µM: read-out: RIPK2 (% of control at 1 µM)
T2 construct: purchased Ambit Biosciences (scanMAXX KINOMEscan)

panel of 442 kinases [3] = target: T3, panel of 442 kinases (Homo sapiens, UniProt P50750); details: CDK9; for remaining activity at 1 µM: read-out: % of control at 1 µM
T3 construct: purchased Ambit Biosciences (scanMAXX KINOMEscan)

panel of 442 kinases [4] = target: T4, panel of 442 kinases (Homo sapiens, UniProt P23443); details: kinase S6K1; for remaining activity at 1 µM: read-out: S6K1 (% of control at 1 µM)
T4 construct: purchased Ambit Biosciences (scanMAXX KINOMEscan)

panel of 442 kinases [5] = target: T5, panel of 442 kinases (Homo sapiens, UniProt Q8NI60); details: ADCK3; for remaining activity at 1 µM: read-out: % of control at 1 µM
T5 construct: purchased Ambit Biosciences (scanMAXX KINOMEscan)

panel of 442 kinases [6] = target: T6, panel of 442 kinases (Homo sapiens, UniProt P0C1S8); details: kinase WEE2; for remaining activity at 1 µM: read-out: WEE2 (% of control at 1 µM)
T6 construct: purchased Ambit Biosciences (scanMAXX KINOMEscan)

panel of 442 kinases [7] = target: T7, panel of 442 kinases (Homo sapiens, UniProt O96013); details: kinase PAK4; for remaining activity at 1 µM: read-out: % of control at 1 µM
T7 construct: purchased Ambit Biosciences (scanMAXX KINOMEscan)

panel of 442 kinases [8] = target: T8, panel of 442 kinases (Homo sapiens, UniProt P16591); details: FER; for remaining activity at 1 µM: read-out: % of control at 1 µM
T8 construct: purchased Ambit Biosciences (scanMAXX KINOMEscan)

panel of 442 kinases [9] = target: T9, panel of 442 kinases (Homo sapiens, UniProt Q32MK0); details: kinase MLCK; for remaining activity at 1 µM: read-out: % of control at 1 µM
T9 construct: purchased Ambit Biosciences (scanMAXX KINOMEscan)
T9 sequence (Q32MK0 1-819): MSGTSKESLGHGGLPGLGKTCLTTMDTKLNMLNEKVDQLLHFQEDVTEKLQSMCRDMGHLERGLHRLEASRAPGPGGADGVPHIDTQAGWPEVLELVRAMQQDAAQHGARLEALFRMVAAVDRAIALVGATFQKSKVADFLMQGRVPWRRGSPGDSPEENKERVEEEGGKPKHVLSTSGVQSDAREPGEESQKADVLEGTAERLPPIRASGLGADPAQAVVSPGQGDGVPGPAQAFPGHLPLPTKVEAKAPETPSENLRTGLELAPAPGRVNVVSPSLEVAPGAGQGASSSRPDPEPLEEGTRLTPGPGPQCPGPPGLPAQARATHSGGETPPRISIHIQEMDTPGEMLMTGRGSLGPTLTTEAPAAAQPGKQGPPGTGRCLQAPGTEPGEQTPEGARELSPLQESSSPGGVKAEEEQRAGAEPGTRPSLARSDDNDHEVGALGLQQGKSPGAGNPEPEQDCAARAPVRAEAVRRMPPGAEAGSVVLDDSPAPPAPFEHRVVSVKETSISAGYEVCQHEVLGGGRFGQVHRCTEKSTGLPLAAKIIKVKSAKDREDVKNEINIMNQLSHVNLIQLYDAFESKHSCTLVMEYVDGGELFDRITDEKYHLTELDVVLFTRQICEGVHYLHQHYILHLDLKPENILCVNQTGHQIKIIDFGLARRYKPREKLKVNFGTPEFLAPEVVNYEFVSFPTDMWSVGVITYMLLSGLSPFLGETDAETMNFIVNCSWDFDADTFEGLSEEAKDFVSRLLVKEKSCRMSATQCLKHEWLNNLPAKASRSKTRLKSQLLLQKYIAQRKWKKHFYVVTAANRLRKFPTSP

panel of 442 kinases [10] = target: T10, panel of 442 kinases (Homo sapiens, UniProt Q16816); details: kinase PHKG1; for remaining activity at 1 µM: read-out: % of control at 1 µM
T10 construct: purchased Ambit Biosciences (scanMAXX KINOMEscan)

panel of 442 kinases [11] = target: T11, panel of 442 kinases (Homo sapiens, UniProt Q9NWZ3); details: kinase IRAK4; for remaining activity at 1 µM: read-out: % of control at 1 µM
T11 construct: purchased Ambit Biosciences (scanMAXX KINOMEscan)
T11 sequence (Q9NWZ3 1-460): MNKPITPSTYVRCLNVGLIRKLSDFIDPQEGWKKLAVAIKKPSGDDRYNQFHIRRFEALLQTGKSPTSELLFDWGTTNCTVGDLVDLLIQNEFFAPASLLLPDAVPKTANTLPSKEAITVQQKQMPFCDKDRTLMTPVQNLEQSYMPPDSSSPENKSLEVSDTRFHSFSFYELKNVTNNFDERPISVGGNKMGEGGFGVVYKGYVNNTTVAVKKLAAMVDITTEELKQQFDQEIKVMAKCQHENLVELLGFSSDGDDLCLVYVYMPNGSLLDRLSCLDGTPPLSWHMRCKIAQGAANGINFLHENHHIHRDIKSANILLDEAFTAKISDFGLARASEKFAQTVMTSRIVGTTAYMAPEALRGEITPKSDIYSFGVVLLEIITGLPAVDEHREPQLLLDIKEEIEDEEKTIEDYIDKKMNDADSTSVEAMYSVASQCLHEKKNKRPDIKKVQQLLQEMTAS

panel of 442 kinases [12] = target: T12, panel of 442 kinases (Homo sapiens, UniProt O60331); details: kinase PIP5K1C; for remaining activity at 1 µM: read-out: % of control at 1 µM
T12 construct: purchased Ambit Biosciences (scanMAXX KINOMEscan)

panel of 442 kinases [13] = target: T13, panel of 442 kinases (Homo sapiens, UniProt O75460); details: ERN1; for remaining activity at 1 µM: read-out: % of control at 1 µM
T13 construct: purchased Ambit Biosciences (scanMAXX KINOMEscan)

[14] = 10 µM, read-out: % of control at 10 µM

T2 sequence (O43353 whole entry): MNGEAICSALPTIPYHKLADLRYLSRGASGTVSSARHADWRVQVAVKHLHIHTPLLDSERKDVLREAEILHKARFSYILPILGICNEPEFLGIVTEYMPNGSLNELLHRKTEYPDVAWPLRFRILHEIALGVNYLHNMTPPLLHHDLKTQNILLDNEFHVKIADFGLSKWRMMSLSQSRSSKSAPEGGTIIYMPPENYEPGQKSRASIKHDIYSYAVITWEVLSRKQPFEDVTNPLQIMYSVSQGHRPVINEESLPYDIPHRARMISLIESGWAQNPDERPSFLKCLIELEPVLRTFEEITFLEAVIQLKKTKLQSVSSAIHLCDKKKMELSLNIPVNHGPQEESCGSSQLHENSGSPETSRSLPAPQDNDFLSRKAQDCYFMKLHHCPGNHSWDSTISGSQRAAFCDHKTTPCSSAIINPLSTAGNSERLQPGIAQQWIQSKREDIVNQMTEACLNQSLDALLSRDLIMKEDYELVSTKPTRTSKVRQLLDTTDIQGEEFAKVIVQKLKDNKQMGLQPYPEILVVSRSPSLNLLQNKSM
T12 sequence (O60331 whole entry): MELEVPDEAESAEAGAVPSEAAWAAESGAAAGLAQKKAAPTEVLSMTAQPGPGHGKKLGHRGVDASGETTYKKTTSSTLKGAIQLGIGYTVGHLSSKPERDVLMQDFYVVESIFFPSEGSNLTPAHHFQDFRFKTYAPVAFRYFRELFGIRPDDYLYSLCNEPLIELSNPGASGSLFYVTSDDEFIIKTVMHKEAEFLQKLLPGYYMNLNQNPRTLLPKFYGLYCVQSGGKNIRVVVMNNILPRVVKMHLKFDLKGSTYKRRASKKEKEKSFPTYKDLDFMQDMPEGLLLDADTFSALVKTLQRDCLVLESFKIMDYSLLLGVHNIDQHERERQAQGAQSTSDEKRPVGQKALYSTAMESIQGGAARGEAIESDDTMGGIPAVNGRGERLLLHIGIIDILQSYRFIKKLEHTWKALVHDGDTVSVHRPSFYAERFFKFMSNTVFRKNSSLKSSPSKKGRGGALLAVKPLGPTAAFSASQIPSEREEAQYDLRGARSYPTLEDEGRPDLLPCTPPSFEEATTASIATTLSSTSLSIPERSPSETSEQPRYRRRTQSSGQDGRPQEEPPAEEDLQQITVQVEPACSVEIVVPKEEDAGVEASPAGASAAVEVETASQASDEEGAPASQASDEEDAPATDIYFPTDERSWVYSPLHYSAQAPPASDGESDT
T5 sequence (Q8NI60 163-647): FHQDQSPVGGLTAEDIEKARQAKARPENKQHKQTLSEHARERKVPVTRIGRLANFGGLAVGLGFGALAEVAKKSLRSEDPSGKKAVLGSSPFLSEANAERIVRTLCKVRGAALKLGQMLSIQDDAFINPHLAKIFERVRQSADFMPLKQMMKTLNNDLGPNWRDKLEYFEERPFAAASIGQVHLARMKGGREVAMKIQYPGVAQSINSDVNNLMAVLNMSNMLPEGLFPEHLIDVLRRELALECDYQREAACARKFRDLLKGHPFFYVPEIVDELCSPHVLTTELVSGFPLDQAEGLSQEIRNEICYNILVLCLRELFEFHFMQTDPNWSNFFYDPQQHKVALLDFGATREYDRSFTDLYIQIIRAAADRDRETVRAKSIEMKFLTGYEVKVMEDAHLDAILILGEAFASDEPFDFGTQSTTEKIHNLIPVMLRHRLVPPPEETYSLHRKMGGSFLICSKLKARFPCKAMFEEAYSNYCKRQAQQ
T4 sequence (P23443 whole entry): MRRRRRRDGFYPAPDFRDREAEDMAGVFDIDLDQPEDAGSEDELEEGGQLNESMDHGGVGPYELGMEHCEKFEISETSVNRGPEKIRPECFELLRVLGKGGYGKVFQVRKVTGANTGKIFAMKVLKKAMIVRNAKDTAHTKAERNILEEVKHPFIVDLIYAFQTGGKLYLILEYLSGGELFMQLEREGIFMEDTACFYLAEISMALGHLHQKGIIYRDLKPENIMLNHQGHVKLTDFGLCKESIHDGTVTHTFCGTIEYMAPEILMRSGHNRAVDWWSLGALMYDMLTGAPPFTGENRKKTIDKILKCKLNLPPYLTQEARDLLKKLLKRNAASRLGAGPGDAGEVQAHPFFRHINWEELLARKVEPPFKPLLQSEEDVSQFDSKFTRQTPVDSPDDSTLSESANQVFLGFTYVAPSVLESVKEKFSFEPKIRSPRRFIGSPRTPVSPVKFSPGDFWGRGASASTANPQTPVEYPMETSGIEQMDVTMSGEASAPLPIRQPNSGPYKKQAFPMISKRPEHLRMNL
T3 sequence (P50750 whole entry): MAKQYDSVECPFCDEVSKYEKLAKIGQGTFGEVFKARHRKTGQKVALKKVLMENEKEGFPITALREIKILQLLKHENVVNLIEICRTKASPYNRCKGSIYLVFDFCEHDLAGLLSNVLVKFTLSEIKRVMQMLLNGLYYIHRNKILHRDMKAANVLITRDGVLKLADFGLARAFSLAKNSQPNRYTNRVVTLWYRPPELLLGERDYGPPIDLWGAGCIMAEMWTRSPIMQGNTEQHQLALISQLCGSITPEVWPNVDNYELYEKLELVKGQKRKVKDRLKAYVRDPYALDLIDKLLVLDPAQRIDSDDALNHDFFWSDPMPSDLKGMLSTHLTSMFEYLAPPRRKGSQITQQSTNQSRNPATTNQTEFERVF
T13 sequence (O75460 19-977): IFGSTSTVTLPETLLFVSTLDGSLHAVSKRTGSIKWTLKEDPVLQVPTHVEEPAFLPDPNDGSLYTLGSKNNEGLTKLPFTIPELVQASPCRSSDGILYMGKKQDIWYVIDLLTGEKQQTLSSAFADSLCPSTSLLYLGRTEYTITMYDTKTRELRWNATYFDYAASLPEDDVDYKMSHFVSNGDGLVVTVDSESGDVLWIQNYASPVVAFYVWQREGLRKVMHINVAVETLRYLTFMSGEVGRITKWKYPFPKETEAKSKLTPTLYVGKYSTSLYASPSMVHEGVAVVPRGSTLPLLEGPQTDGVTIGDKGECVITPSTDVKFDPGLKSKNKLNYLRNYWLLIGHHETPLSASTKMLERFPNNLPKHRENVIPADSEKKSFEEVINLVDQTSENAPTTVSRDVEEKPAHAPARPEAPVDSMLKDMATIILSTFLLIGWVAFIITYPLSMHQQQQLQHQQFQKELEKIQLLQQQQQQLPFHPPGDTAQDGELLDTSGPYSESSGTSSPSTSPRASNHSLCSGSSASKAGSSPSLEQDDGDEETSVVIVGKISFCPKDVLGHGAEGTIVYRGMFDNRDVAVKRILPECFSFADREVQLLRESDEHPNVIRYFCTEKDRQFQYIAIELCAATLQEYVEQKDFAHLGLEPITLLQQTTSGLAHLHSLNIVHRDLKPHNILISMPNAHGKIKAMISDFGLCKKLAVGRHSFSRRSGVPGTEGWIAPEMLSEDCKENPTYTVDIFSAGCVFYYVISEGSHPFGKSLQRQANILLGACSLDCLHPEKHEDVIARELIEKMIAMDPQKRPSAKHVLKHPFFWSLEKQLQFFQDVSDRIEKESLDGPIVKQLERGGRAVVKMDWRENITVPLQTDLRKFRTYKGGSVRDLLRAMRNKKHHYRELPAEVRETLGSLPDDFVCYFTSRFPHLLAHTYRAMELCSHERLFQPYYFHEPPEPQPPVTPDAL
T6 sequence (P0C1S8 whole entry): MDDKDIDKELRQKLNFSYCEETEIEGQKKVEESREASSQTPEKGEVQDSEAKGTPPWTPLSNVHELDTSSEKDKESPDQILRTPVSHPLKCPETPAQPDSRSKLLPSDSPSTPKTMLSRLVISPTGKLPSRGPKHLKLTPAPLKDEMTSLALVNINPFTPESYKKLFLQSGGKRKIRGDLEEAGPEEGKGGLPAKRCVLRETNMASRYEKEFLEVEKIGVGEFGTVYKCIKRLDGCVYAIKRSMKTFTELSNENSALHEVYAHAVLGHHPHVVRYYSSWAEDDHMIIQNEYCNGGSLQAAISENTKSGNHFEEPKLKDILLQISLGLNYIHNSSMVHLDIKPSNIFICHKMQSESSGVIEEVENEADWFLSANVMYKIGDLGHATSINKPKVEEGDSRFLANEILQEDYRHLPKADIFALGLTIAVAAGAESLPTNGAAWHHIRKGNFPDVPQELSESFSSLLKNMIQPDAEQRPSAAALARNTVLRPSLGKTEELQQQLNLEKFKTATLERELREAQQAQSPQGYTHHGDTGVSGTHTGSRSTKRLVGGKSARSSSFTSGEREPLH
T8 sequence (P16591 whole entry): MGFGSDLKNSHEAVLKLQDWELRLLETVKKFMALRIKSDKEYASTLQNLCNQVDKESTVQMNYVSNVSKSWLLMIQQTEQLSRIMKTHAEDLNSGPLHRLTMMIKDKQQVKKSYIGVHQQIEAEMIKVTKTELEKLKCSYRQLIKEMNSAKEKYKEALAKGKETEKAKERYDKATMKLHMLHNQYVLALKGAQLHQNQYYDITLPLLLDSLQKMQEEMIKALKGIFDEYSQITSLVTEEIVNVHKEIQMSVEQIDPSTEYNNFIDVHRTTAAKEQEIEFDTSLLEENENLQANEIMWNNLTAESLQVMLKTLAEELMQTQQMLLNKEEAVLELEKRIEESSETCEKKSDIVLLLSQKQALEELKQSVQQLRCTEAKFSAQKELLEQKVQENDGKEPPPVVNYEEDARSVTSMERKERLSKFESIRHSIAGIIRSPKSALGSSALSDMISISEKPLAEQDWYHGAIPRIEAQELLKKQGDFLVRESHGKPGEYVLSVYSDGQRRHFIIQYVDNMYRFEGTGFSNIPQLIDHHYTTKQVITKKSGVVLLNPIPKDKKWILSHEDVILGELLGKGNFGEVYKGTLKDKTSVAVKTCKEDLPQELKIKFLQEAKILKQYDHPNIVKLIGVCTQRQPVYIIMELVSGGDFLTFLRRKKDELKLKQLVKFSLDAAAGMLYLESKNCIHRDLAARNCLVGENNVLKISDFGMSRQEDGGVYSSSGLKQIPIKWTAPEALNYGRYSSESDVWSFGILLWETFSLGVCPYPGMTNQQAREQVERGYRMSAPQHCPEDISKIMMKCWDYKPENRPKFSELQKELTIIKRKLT

SMILES: Nc1cc(C(F)(F)F)c(-c2cc(N3CCOCC3)nc(N3CCOCC3)n2)cn1 [Buparlisib]
- remaining activity at 1 µM (panel of 442 kinases [1]): 86%
- remaining activity at 10 µM (panel of 442 kinases [1]; [14]): 100%
- remaining activity at 1 µM (panel of 442 kinases [2]): 100%
- remaining activity at 10 µM (panel of 442 kinases [2]; 10 µM, read-out: RIPK2 (% of control at 10 µM)): 100%
- remaining activity at 1 µM (panel of 442 kinases [3]): 85%
- remaining activity at 10 µM (panel of 442 kinases [3]; [14]): 85%
- remaining activity at 1 µM (panel of 442 kinases [4]): 88%
- remaining activity at 10 µM (panel of 442 kinases [4]; 10 µM, read-out: S6K1 (% of control at 10 µM)): 99%
- remaining activity at 1 µM (panel of 442 kinases [5]): 100%
- remaining activity at 10 µM (panel of 442 kinases [5]; [14]): 89%
- remaining activity at 1 µM (panel of 442 kinases [6]): 100%
- remaining activity at 10 µM (panel of 442 kinases [6]; 10 µM, read-out: WEE2 (% of control at 10 µM)): 100%
- remaining activity at 1 µM (panel of 442 kinases [7]): 93%
- remaining activity at 10 µM (panel of 442 kinases [7]; [14]): 100%
- remaining activity at 1 µM (panel of 442 kinases [8]): 100%
- remaining activity at 10 µM (panel of 442 kinases [8]; [14]): 100%
- remaining activity at 1 µM (panel of 442 kinases [9]): 100%
- remaining activity at 10 µM (panel of 442 kinases [9]; [14]): 100%
- remaining activity at 1 µM (panel of 442 kinases [10]): 99%
- remaining activity at 10 µM (panel of 442 kinases [10]; [14]): 100%
- remaining activity at 1 µM (panel of 442 kinases [11]): 62%
- remaining activity at 10 µM (panel of 442 kinases [11]; [14]): 67%
- remaining activity at 1 µM (panel of 442 kinases [12]): 55%
- remaining activity at 10 µM (panel of 442 kinases [12]; [14]): 63%
- remaining activity at 1 µM (panel of 442 kinases [13]): 100%
- remaining activity at 10 µM (panel of 442 kinases [13]; [14]): 100%

SMILES: Cn1c(=O)n(-c2ccc(C(C)(C)C#N)cc2)c2c3cc(-c4cnc5ccccc5c4)ccc3ncc21 [Dactolisib, 2-methyl-2-[4-(3-methyl-2-oxo-8-quinolin-3-yl-2,3-dihydroimidazo[4,5-c]quinolin-1-yl)-phenyl] propionitrile]
- remaining activity at 1 µM (panel of 442 kinases [1]): 90%
- remaining activity at 1 µM (panel of 442 kinases [2]): 37%
- remaining activity at 1 µM (panel of 442 kinases [3]): 91%
- remaining activity at 1 µM (panel of 442 kinases [5]): 82%
- remaining activity at 1 µM (panel of 442 kinases [6]): 100%
- remaining activity at 1 µM (panel of 442 kinases [7]): 100%
- remaining activity at 1 µM (panel of 442 kinases [8]): 60%
- remaining activity at 1 µM (panel of 442 kinases [9]): 80%
- remaining activity at 1 µM (panel of 442 kinases [10]): 100%
- remaining activity at 1 µM (panel of 442 kinases [11]): 68%
- remaining activity at 1 µM (panel of 442 kinases [12]): 100%
- remaining activity at 1 µM (panel of 442 kinases [13]): 100%

SMILES: COc1ncc(-c2ccc3nccc(-c4ccnnc4)c3c2)cc1NS(=O)(=O)c1ccc(F)cc1F [Omipalisib]
- remaining activity at 1 µM (panel of 442 kinases [1]): 68%
- remaining activity at 1 µM (panel of 442 kinases [2]): 59%
- remaining activity at 1 µM (panel of 442 kinases [3]): 100%
- remaining activity at 1 µM (panel of 442 kinases [4]): 100%
- remaining activity at 1 µM (panel of 442 kinases [5]): 87%
- remaining activity at 1 µM (panel of 442 kinases [6]): 84%
- remaining activity at 1 µM (panel of 442 kinases [7]): 95%
- remaining activity at 1 µM (panel of 442 kinases [8]): 100%
- remaining activity at 1 µM (panel of 442 kinases [9]): 100%
- remaining activity at 1 µM (panel of 442 kinases [10]): 86%
- remaining activity at 1 µM (panel of 442 kinases [11]): 88%
- remaining activity at 1 µM (panel of 442 kinases [12]): 100%
- remaining activity at 1 µM (panel of 442 kinases [13]): 73%

SMILES: FC(F)c1nc2ccccc2n1-c1nc(N2CCOCC2)nc(N2CCOCC2)n1 [ZSTK474, 2-(difluoromethyl)-1-[4,6-di(4-morpholinyl)-1,3,5-triazin-2-yl]-1H-benzimidazole]
- remaining activity at 1 µM (panel of 442 kinases [1]): 100%
- remaining activity at 1 µM (panel of 442 kinases [2]): 83%
- remaining activity at 1 µM (panel of 442 kinases [3]): 100%
- remaining activity at 1 µM (panel of 442 kinases [4]): 91%
- remaining activity at 1 µM (panel of 442 kinases [5]): 82%
- remaining activity at 1 µM (panel of 442 kinases [6]): 96%
- remaining activity at 1 µM (panel of 442 kinases [7]): 96%
- remaining activity at 1 µM (panel of 442 kinases [8]): 55%
- remaining activity at 1 µM (panel of 442 kinases [9]): 92%
- remaining activity at 1 µM (panel of 442 kinases [10]): 100%
- remaining activity at 1 µM (panel of 442 kinases [11]): 100%
- remaining activity at 1 µM (panel of 442 kinases [12]): 100%
- remaining activity at 1 µM (panel of 442 kinases [13]): 90%
